PubChem BioAssay AID1259407 (Chemical Carcinogenesis Research Information System (CCRIS), 2018)
Activity calls are given as the source filed them. No rule for the calls is given here.

Tested on: CCRIS mutagenicity, Ames/micronucleus/aberration tests
Assay: CCRIS mutagenicity studies
[1] = Test System: AMES SALMONELLA TYPHIMURIUM, Strain/Indicator: TA98, Metabolic Activation: NONE, Method: STANDARD PLATE
[2] = Test System: AMES SALMONELLA TYPHIMURIUM, Strain/Indicator: TA98, Metabolic Activation: RAT, LIVER, S-9, AROCLOR 1254, Method: STANDARD PLATE
[3] = Test System: AMES SALMONELLA TYPHIMURIUM, Strain/Indicator: TA100, Metabolic Activation: NONE, Method: PREINCUBATION
[4] = Test System: AMES SALMONELLA TYPHIMURIUM, Strain/Indicator: TA100, Metabolic Activation: NONE, Method: STANDARD PLATE

With `Nc1ccc([N+](=O)[O-])cc1O` the mutagenic call (End Point: IN VITRO CHROMOSOMAL ABERRATIONS, Test System: CHO CELLS, Metabolic Activation: NONE) was “active; positive; precipitation occurred at 100.5 and 149.9 ug/ml”, the mutagenic call (End Point: IN VITRO CHROMOSOMAL ABERRATIONS, Test System: CHO CELLS, Metabolic Activation: RAT, LIVER, S-9, AROCLOR 1254) was “active; positive; precipitation occurred at both doses” and the mutagenic call (Test System: AMES SALMONELLA TYPHIMURIUM, Strain/Indicator: TA98, Metabolic Activation: HAMSTER, LIVER, S-9, AROCLOR 1254 (10%), Method: PREINCUBATION) was “active; positive”. The mutagenic call (Test System: AMES SALMONELLA TYPHIMURIUM, Strain/Indicator: TA98, Metabolic Activation: HAMSTER, LIVER, S-9, AROCLOR 1254, Method: PREINCUBATION) was “active; positive”, the mutagenic call (Test System: AMES SALMONELLA TYPHIMURIUM, Strain/Indicator: TA98, Metabolic Activation: NONE, Method: FLUCTUATION (MICROTITER)) was “active; positive” and the mutagenic call (Test System: AMES SALMONELLA TYPHIMURIUM, Strain/Indicator: TA98, Metabolic Activation: NONE, Method: PREINCUBATION) was “active; positive”. For the same molecule, the mutagenic call [1] was “active; positive”, the mutagenic call (Test System: AMES SALMONELLA TYPHIMURIUM, Strain/Indicator: TA98, Metabolic Activation: RAT, LIVER, S-9, AROCLOR 1254 (10%), Method: PREINCUBATION) was “active; positive” and the mutagenic call (Test System: AMES SALMONELLA TYPHIMURIUM, Strain/Indicator: TA98, Metabolic Activation: RAT, LIVER, S-9, AROCLOR 1254, Method: PREINCUBATION) was “active; positive”. For the same molecule, the mutagenic call [2] was “inactive; negative”, the mutagenic call (Test System: AMES SALMONELLA TYPHIMURIUM, Strain/Indicator: TA100, Metabolic Activation: HAMSTER, LIVER, S-9, AROCLOR 1254 (10%), Method: PREINCUBATION) was “inactive; negative” and the mutagenic call [3] was “inactive; negative”. The mutagenic call (Test System: AMES SALMONELLA TYPHIMURIUM, Strain/Indicator: TA100, Metabolic Activation: RAT, LIVER, S-9, AROCLOR 1254 (10%), Method: PREINCUBATION) was “inactive; negative”, the mutagenic call (Test System: AMES SALMONELLA TYPHIMURIUM, Strain/Indicator: TA1535, Metabolic Activation: HAMSTER, LIVER, S-9, AROCLOR 1254 (10%), Method: PREINCUBATION) was “inactive; negative” and the mutagenic call (Test System: AMES SALMONELLA TYPHIMURIUM, Strain/Indicator: TA1535, Metabolic Activation: HAMSTER, LIVER, S-9, AROCLOR 1254, Method: PREINCUBATION) was “inactive; negative”. The mutagenic call (Test System: AMES SALMONELLA TYPHIMURIUM, Strain/Indicator: TA1535, Metabolic Activation: NONE, Method: PREINCUBATION) was “inactive; negative”, the mutagenic call (Test System: AMES SALMONELLA TYPHIMURIUM, Strain/Indicator: TA1535, Metabolic Activation: RAT, LIVER, S-9, AROCLOR 1254 (10%), Method: PREINCUBATION) was “inactive; negative” and the mutagenic call (Test System: AMES SALMONELLA TYPHIMURIUM, Strain/Indicator: TA1535, Metabolic Activation: RAT, LIVER, S-9, AROCLOR 1254, Method: PREINCUBATION) was “inactive; negative”. The mutagenic call (Test System: AMES SALMONELLA TYPHIMURIUM, Strain/Indicator: TA1537, Metabolic Activation: HAMSTER, LIVER, S-9, AROCLOR 1254 (10%), Method: PREINCUBATION) was “active; positive”, the mutagenic call (Test System: AMES SALMONELLA TYPHIMURIUM, Strain/Indicator: TA1537, Metabolic Activation: HAMSTER, LIVER, S-9, AROCLOR 1254, Method: PREINCUBATION) was “active; positive” and the mutagenic call (Test System: AMES SALMONELLA TYPHIMURIUM, Strain/Indicator: TA1537, Metabolic Activation: NONE, Method: FLUCTUATION (MICROTITER)) was “inactive; negative”. For the same molecule, the mutagenic call (Test System: AMES SALMONELLA TYPHIMURIUM, Strain/Indicator: TA1537, Metabolic Activation: NONE, Method: PREINCUBATION) was “active; positive”, the mutagenic call (Test System: AMES SALMONELLA TYPHIMURIUM, Strain/Indicator: TA1537, Metabolic Activation: RAT, LIVER, S-9, AROCLOR 1254 (10%), Method: PREINCUBATION) was “active; positive” and the mutagenic call (Test System: AMES SALMONELLA TYPHIMURIUM, Strain/Indicator: TA1537, Metabolic Activation: RAT, LIVER, S-9, AROCLOR 1254, Method: PREINCUBATION) was “active; positive”. The mutagenic call (Test System: AMES SALMONELLA TYPHIMURIUM, Strain/Indicator: TA7001, Metabolic Activation: NONE, Method: FLUCTUATION (MICROTITER)) was “inactive; negative”, the mutagenic call (Test System: AMES SALMONELLA TYPHIMURIUM, Strain/Indicator: TA7002, Metabolic Activation: NONE, Method: FLUCTUATION (MICROTITER)) was “inactive; negative” and the mutagenic call (Test System: AMES SALMONELLA TYPHIMURIUM, Strain/Indicator: TA7003, Metabolic Activation: NONE, Method: FLUCTUATION (MICROTITER)) was “inactive; negative”. For the same molecule, the mutagenic call (Test System: AMES SALMONELLA TYPHIMURIUM, Strain/Indicator: TA7004, Metabolic Activation: NONE, Method: FLUCTUATION (MICROTITER)) was “inactive; negative”, the mutagenic call (Test System: AMES SALMONELLA TYPHIMURIUM, Strain/Indicator: TA7005, Metabolic Activation: NONE, Method: FLUCTUATION (MICROTITER)) was “inactive; negative” and the mutagenic call (Test System: AMES SALMONELLA TYPHIMURIUM, Strain/Indicator: TA7006, Metabolic Activation: NONE, Method: FLUCTUATION (MICROTITER)) was “inactive; negative”. The mutagenic call (Test System: MOUSE LYMPHOMA, Strain/Indicator: L5178Y (TK+/TK-), Metabolic Activation: NONE, Method: SUSPENSION/PLATE) was “active; positive”.
`CCCCCCCCCCCC[N+](C)(C)COCCCCCCCC` was tested, and the mutagenic call (Test System: BACILLUS SUBTILIS, Strain/Indicator: H17/REC, Metabolic Activation: NONE, Method: STANDARD PLATE) was “inactive; negative” and the mutagenic call (Test System: BACILLUS SUBTILIS, Strain/Indicator: M45, Metabolic Activation: NONE, Method: STANDARD PLATE) was “inactive; negative”.
`Cc1cnc2c(cc(C)c3c2nc(N)n3C)n1` was tested, and the mutagenic call [2] was “active; positive”.
With `c1ccc(-c2cccnc2)nc1` the mutagenic call (Test System: AMES SALMONELLA TYPHIMURIUM, Strain/Indicator: TA97, Metabolic Activation: RAT, LIVER, S-9, PHENOBARBITAL, Method: STANDARD PLATE) was “active; positive”, the mutagenic call (Test System: AMES SALMONELLA TYPHIMURIUM, Strain/Indicator: TA97, Metabolic Activation: RAT, LIVER, S-9, SODIUM PHENOBARBITAL, Method: PREINCUBATION) was “active; positive” and the mutagenic call (Test System: AMES SALMONELLA TYPHIMURIUM, Strain/Indicator: TA98, Metabolic Activation: RAT, LIVER, S-9, PHENOBARBITAL, Method: STANDARD PLATE) was “inactive; negative”. The mutagenic call (Test System: AMES SALMONELLA TYPHIMURIUM, Strain/Indicator: TA100, Metabolic Activation: RAT, LIVER, S-9, PHENOBARBITAL, Method: STANDARD PLATE) was “inactive; negative”, the mutagenic call (Test System: AMES SALMONELLA TYPHIMURIUM, Strain/Indicator: TA100, Metabolic Activation: RAT, LIVER, S-9, SODIUM PHENOBARBITAL, Method: PREINCUBATION) was “active; positive” and the mutagenic call (Test System: AMES SALMONELLA TYPHIMURIUM, Strain/Indicator: TA1535, Metabolic Activation: RAT, LIVER, S-9, PHENOBARBITAL, Method: STANDARD PLATE) was “inactive; negative”. For the same molecule, the mutagenic call (Test System: AMES SALMONELLA TYPHIMURIUM, Strain/Indicator: TA1537, Metabolic Activation: RAT, LIVER, S-9, PHENOBARBITAL, Method: STANDARD PLATE) was “active; positive” and the mutagenic call (Test System: AMES SALMONELLA TYPHIMURIUM, Strain/Indicator: TA1538, Metabolic Activation: RAT, LIVER, S-9, PHENOBARBITAL, Method: STANDARD PLATE) was “inactive; negative”.
For `C=CC[C@]1(O)CC[C@H]2[C@@H]3CCC4=CCCC[C@@H]4[C@H]3CC[C@@]21C`, the mutagenic call (End Point: IN VIVO MICRONUCLEUS, Test System: HEPATOCYTES, Species: RAT, Strain/Sex: SPRAGUE-DAWLEY/FEMALE, Route: INTRAGASTRIC (GAVAGE)) was “inactive; negative (increase not significant)”.
In the case of `O=C1NC(c2ccc([N+](=O)[O-])s2)Nc2ccccc21` (centres undefined), the mutagenic call [1] is reported as “active; positive” and the mutagenic call [4] is reported as “active; positive”.
`COC(=O)c1ccc([N+](=O)[O-])o1` was tested, and the mutagenic call [1] was “active; positive” and the mutagenic call [4] was “active; positive”.
In the case of `COCC12OOC1(C)c1ccccc1O2` (centres undefined), the mutagenic call [3] is reported as “active; positive”.
In the case of `Oc1ccc2cc3c4ccccc4c4ccccc4c3cc2c1`, the mutagenic call (Test System: AMES SALMONELLA TYPHIMURIUM, Strain/Indicator: TA100, Metabolic Activation: RAT, LIVER, S-9, AROCLOR 1254, Method: PREINCUBATION) is reported as “active; positive”.
